Results: ChEMBL document CHEMBL4138172, “Synthesis of bis-indolylmethanes as new potential inhibitors of β-glucuronidase and their molecular docking studies” (Eur J Med Chem, 2018)

Biological target: T1, Beta-glucuronidase (Homo sapiens, UniProt P08236)
T1 sequence (P08236 whole entry): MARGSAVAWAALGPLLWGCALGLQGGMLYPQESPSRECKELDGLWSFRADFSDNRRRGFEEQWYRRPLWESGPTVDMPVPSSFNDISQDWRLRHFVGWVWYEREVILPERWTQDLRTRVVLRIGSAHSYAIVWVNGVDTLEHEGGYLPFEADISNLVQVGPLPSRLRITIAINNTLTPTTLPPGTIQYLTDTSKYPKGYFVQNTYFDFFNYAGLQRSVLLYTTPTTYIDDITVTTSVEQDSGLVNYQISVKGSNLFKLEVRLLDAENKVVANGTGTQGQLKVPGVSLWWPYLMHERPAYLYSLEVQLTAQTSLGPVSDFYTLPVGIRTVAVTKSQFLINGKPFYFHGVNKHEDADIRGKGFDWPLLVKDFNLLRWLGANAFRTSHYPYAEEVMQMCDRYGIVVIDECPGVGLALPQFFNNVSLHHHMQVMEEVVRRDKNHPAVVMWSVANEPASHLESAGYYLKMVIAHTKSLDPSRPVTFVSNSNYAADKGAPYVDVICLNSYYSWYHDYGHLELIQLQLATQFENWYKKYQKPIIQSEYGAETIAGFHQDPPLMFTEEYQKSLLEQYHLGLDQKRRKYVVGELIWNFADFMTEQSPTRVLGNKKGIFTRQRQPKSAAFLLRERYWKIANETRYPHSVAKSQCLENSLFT
Test: Inhibition of human beta-glucuronidase

SMILES	IC50 [µM]
Cc1ccc(C(c2c[nH]c3ccc(C(=O)N/N=C/c4ccc(F)cc4)cc23)c2c[nH]c3ccc(C(=O)N/N=C/c4ccc(F)cc4)cc23)cc1	2.8
COc1ccc(/C=N/NC(=O)c2ccc3[nH]cc(C(c4ccc(C)cc4)c4c[nH]c5ccc(C(=O)N/N=C/c6ccc(OC)c(O)c6I)cc45)c3c2)c(I)c1O	43.5
Cc1ccc(C(c2c[nH]c3ccc(C(=O)N/N=C/c4ccccc4)cc23)c2c[nH]c3ccc(C(=O)N/N=C/c4ccccc4)cc23)cc1	42.8
Cc1ccc(C(c2c[nH]c3ccc(C(=O)N/N=C/c4ccncc4)cc23)c2c[nH]c3ccc(C(=O)N/N=C/c4ccncc4)cc23)cc1	23.4
Cc1ccc(C(c2c[nH]c3ccc(C(=O)N/N=C/c4cccc([N+](=O)[O-])c4)cc23)c2c[nH]c3ccc(C(=O)N/N=C/c4cccc([N+](=O)[O-])c4)cc23)cc1	7.57
COc1ccc(/C=N/NC(=O)c2ccc3[nH]cc(C(c4ccc(C)cc4)c4c[nH]c5ccc(C(=O)N/N=C/c6ccc(OC)cc6)cc45)c3c2)cc1	32.8
Cc1ccc(C(c2c[nH]c3ccc(C(=O)N/N=C/C=C/c4ccccc4)cc23)c2c[nH]c3ccc(C(=O)N/N=C/C=C/c4ccccc4)cc23)cc1	2.98
Cc1ccc(C(c2c[nH]c3ccc(C(=O)N/N=C/c4ccc(Cl)cc4)cc23)c2c[nH]c3ccc(C(=O)N/N=C/c4ccc(Cl)cc4)cc23)cc1	5.8
Cc1ccc(C(c2c[nH]c3ccc(C(=O)N/N=C/c4ccccn4)cc23)c2c[nH]c3ccc(C(=O)N/N=C/c4ccccn4)cc23)cc1	13.1
Cc1ccc(/C=N/NC(=O)c2ccc3[nH]cc(C(c4ccc(C)cc4)c4c[nH]c5ccc(C(=O)N/N=C/c6ccc(C)cc6)cc45)c3c2)cc1	12.5
Cc1ccc(C(c2c[nH]c3ccc(C(=O)N/N=C/c4cccc(F)c4)cc23)c2c[nH]c3ccc(C(=O)N/N=C/c4cccc(F)c4)cc23)cc1	2.2
Cc1ccc(C(c2c[nH]c3ccc(C(=O)N/N=C/c4ccccc4[N+](=O)[O-])cc23)c2c[nH]c3ccc(C(=O)N/N=C/c4ccccc4[N+](=O)[O-])cc23)cc1	48.5
Cc1ccc(C(c2c[nH]c3ccc(C(=O)N/N=C/c4cccnc4)cc23)c2c[nH]c3ccc(C(=O)N/N=C/c4cccnc4)cc23)cc1	32.9
Cc1ccc(C(c2c[nH]c3ccc(C(=O)N/N=C/c4cccc(Cl)c4)cc23)c2c[nH]c3ccc(C(=O)N/N=C/c4cccc(Cl)c4)cc23)cc1	6.9

Other lines, results leading:

IC50 [µM]	SMILES
2.1	COc1ccc(O)c(/C=N/NC(=O)c2ccc3[nH]cc(C(c4ccc(C)cc4)c4c[nH]c5ccc(C(=O)N/N=C/c6cc(OC)ccc6O)cc45)c3c2)c1
15.8	Cc1ccc(C(c2c[nH]c3ccc(C(=O)N/N=C/c4ccc(F)c(Br)c4)cc23)c2c[nH]c3ccc(C(=O)N/N=C/c4ccc(F)c(Br)c4)cc23)cc1
0.3	Cc1ccc(C(c2c[nH]c3ccc(C(=O)N/N=C/c4ccc(O)c(O)c4)cc23)c2c[nH]c3ccc(C(=O)N/N=C/c4ccc(O)c(O)c4)cc23)cc1
1.2	Cc1ccc(C(c2c[nH]c3ccc(C(=O)N/N=C/c4ccccc4F)cc23)c2c[nH]c3ccc(C(=O)N/N=C/c4ccccc4F)cc23)cc1
2.67	COc1ccc(/C=N/NC(=O)c2ccc3[nH]cc(C(c4ccc(C)cc4)c4c[nH]c5ccc(C(=O)N/N=C/c6ccc(OC)c(O)c6)cc45)c3c2)cc1O
1.1	Cc1ccc(C(c2c[nH]c3ccc(C(=O)N/N=C/c4ccc(Cl)cc4Cl)cc23)c2c[nH]c3ccc(C(=O)N/N=C/c4ccc(Cl)cc4Cl)cc23)cc1
0.1	Cc1ccc(C(c2c[nH]c3ccc(C(=O)N/N=C/c4cc(O)c(O)cc4O)cc23)c2c[nH]c3ccc(C(=O)N/N=C/c4cc(O)c(O)cc4O)cc23)cc1
0.2	Cc1ccc(C(c2c[nH]c3ccc(C(=O)N/N=C/c4c(O)cc(O)cc4O)cc23)c2c[nH]c3ccc(C(=O)N/N=C/c4c(O)cc(O)cc4O)cc23)cc1
2.35	Cc1ccc(C(c2c[nH]c3ccc(C(=O)N/N=C/c4ccc(O)cc4)cc23)c2c[nH]c3ccc(C(=O)N/N=C/c4ccc(O)cc4)cc23)cc1
3.45	COc1ccc(/C=N/NC(=O)c2ccc3[nH]cc(C(c4ccc(C)cc4)c4c[nH]c5ccc(C(=O)N/N=C/c6ccc(OC)cc6O)cc45)c3c2)c(O)c1
2.8	Cc1ccc(C(c2c[nH]c3ccc(C(=O)N/N=C/c4ccccc4Cl)cc23)c2c[nH]c3ccc(C(=O)N/N=C/c4ccccc4Cl)cc23)cc1
0.1	Cc1ccc(C(c2c[nH]c3ccc(C(=O)N/N=C/c4cccc(O)c4O)cc23)c2c[nH]c3ccc(C(=O)N/N=C/c4cccc(O)c4O)cc23)cc1
5.87	Cc1ccc(C(c2c[nH]c3ccc(C(=O)N/N=C/c4cccc(O)c4)cc23)c2c[nH]c3ccc(C(=O)N/N=C/c4cccc(O)c4)cc23)cc1
1.14	Cc1ccc(C(c2c[nH]c3ccc(C(=O)N/N=C/c4cc(O)ccc4O)cc23)c2c[nH]c3ccc(C(=O)N/N=C/c4cc(O)ccc4O)cc23)cc1
33.5	Cc1ccc(C(c2c[nH]c3ccc(C(=O)N/N=C/c4cccc(C)c4)cc23)c2c[nH]c3ccc(C(=O)N/N=C/c4cccc(C)c4)cc23)cc1
1.5	Cc1ccc(C(c2c[nH]c3ccc(C(=O)N/N=C/c4ccccc4O)cc23)c2c[nH]c3ccc(C(=O)N/N=C/c4ccccc4O)cc23)cc1
0.3	Cc1ccc(C(c2c[nH]c3ccc(C(=O)N/N=C/c4ccc(O)cc4O)cc23)c2c[nH]c3ccc(C(=O)N/N=C/c4ccc(O)cc4O)cc23)cc1
22.2	Cc1ccc(C(c2c[nH]c3ccc(C(=O)N/N=C/c4ccccc4C)cc23)c2c[nH]c3ccc(C(=O)N/N=C/c4ccccc4C)cc23)cc1
